In the experiment the target is Human Factor D (Homo sapiens (Human), UniProt P00746). The experiment can be described thus: Human Factor D Assay. Format: biochemical. To be noted: Human Factor D assay of Example 8; Table 2; read-out: IC50. The gist of the method:
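Thioester cleavage assay: human Factor D (serum-derived, 80 nM final), substrate Z-L-Lys-SBzl with DTNB, both 100 μM final, after 5 min compound preincubation at room temperature.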
Chain of Human Factor D (P00746 26-253): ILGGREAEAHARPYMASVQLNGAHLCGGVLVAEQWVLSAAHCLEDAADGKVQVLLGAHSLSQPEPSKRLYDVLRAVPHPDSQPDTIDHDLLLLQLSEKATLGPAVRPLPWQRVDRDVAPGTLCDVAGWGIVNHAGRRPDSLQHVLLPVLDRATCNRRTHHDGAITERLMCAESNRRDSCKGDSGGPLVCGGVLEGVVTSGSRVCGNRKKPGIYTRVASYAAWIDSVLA
`COCCOCCNC(=O)c1ncc(-c2ccc3c(c2)c(C(C)=O)cn3CC(=O)N2C[C@H](F)C[C@H]2C(=O)Nc2cccc(-c3ccccc3Cl)c2F)cn1` [Compound 212, 5-(3-acetyl-1-(2-((2S,4R)-2-(2′-chloro-2-fluorobiphenyl-3-ylcarbamoyl)-4-fluoropyrrolidin-1-yl)-2-oxoethyl)-1H-indol-5-yl)-N-(2-(2-methoxyethoxy)ethyl)pyrimidine-2-carboxamide]: the IC50 is under 1000 nM.
Then `CC(=O)c1cn(CC(=O)N2C[C@H](F)C[C@H]2C(=O)Nc2cccc(Br)n2)c2ccc(-c3cnc(C(N)=O)nc3)cc12` [Compound 213, 5-(3-acetyl-1-(2-((2S,4R)-2-(6-bromopyridin-2-ylcarbamoyl)-4-fluoropyrrolidin-1-yl)-2-oxoethyl)-1H-indol-5-yl)pyrimidine-2-carboxamide], with under 1000 nM; and `CC(=O)c1nn(CC(=O)N2C[C@H](F)C[C@H]2C(=O)Nc2cccc(-c3ccc4[nH]cnc4c3Cl)c2F)c2ccc(-c3cnc(C)nc3)cc12` [Compound 214, (2S,4R)-1-(2-(3-acetyl-5-(2-methylpyrimidin-5-yl)-1H-indazol-1-yl)acetyl)-N-(3-(4-chloro-1H-benzo[d]imidazol-5-yl)-2-fluorophenyl)-4-fluoropyrrolidine-2-carboxamide], with under 1000 nM; and `CC(=O)c1cn(CC(=O)N2C[C@H](F)C[C@H]2C(=O)Nc2cccc(-c3ccccc3Cl)c2F)c2ccc(-c3cnc(N)nc3)cc12` [Compound 215, (2S,4R)-1-(2-(3-acetyl-5-(2-aminopyrimidin-5-yl)-1H-indol-1-yl)acetyl)-N-(2′-chloro-2-fluorobiphenyl-3-yl)-4-fluoropyrrolidine-2-carboxamide], with under 1000 nM.
Then `CC(=O)c1cn(CC(=O)N2C[C@H](F)C[C@H]2C(=O)Nc2cccc(Br)n2)c2ccc(-c3cnc(C4CC4)nc3)cc12` [Compound 216, (2S,4R)-1-(2-(3-acetyl-5-(2-cyclopropylpyrimidin-5-yl)-1H-indol-1-yl)acetyl)-N-(6-bromopyridin-2-yl)-4-fluoropyrrolidine-2-carboxamide], with under 1000 nM; and `CC(=O)c1ncc(-c2ccc3c(c2)c(C(C)=O)cn3CC(=O)N2C[C@H](F)C[C@H]2C(=O)Nc2cccc(Br)n2)cn1` [Compound 218, (2S,4R)-1-(2-(3-acetyl-5-(2-acetylpyrimidin-5-yl)-1H-indol-1-yl)acetyl)-N-(6-bromopyridin-2-yl)-4-fluoropyrrolidine-2-carboxamide], with under 1000 nM.
Then `CC(=O)c1cn(CC(=O)N2C[C@H](F)C[C@H]2C(=O)Nc2cccc(Br)n2)c2ccc(-c3cnc(N)nc3)cc12` [Compound 219, (2S,4R)-1-(2-(3-acetyl-5-(2-aminopyrimidin-5-yl)-1H-indol-1-yl)acetyl)-N-(6-bromopyridin-2-yl)-4-fluoropyrrolidine-2-carboxamide], with under 1000 nM; and `CC(=O)c1nn(CC(=O)N2C[C@H](F)C[C@H]2C(=O)Nc2cccc(OC(F)(F)F)c2F)c2ccc(-c3cnc(C)nc3)cc12` [Compound 220, (2S,4R)-1-(2-(3-acetyl-5-(2-methylpyrimidin-5-yl)-1H-indazol-1-yl)acetyl)-4-fluoro-N-(2-fluoro-3-(trifluoromethoxy)phenyl)pyrrolidine-2-carboxamide], with under 1000 nM.
For the compound `CC(=O)c1cn(CC(=O)N2N=CCC2C(=O)Nc2cccc(-c3ccccc3Cl)c2F)c2ccc(-c3cnc(C)nc3)cc12` (stereo not shown) [Compound 221, 1-(2-(3-acetyl-5-(2-methylpyrimidin-5-yl)-1H-indol-1-yl)acetyl)-N-(2′-chloro-2-fluorobiphenyl-3-yl)-4,5-dihydro-1H-pyrazole-5-carboxamide], the IC50 is under 1000 nM.
With `CC(=O)c1cn(CC(=O)N2C[C@H](F)C[C@H]2C(=O)Nc2cccc(Br)n2)c2ccc(-c3cnc4nccn4c3)cc12` [Compound 222, (2S,4R)-1-(2-(3-acetyl-5-(imidazo[1,2-a]pyrimidin-6-yl)-1H-indol-1-yl)acetyl)-N-(6-bromopyridin-2-yl)-4-fluoropyrrolidine-2-carboxamide], the IC50 is under 1000 nM.
As to `CC(=O)c1cn(CC(=O)N2C[C@H](F)C[C@H]2C(=O)Nc2cccc(Cl)n2)c2ccc(-c3cnc4ccnn4c3)cc12` [Compound 223, (2S,4R)-1-(2-(3-acetyl-5-(pyrazolo[1,5-a]pyrimidin-6-yl)-1H-indol-1-yl)acetyl)-N-(6-chloropyridin-2-yl)-4-fluoropyrrolidine-2-carboxamide], the IC50 is under 1000 nM.
Then `CC(=O)c1cn(CC(=O)N2C[C@H](F)C[C@H]2C(=O)Nc2cccc(OC(F)(F)F)c2F)c2ccc(-c3cnc4ccnn4c3)cc12` [Compound 224, (2S,4R)-1-(2-(3-acetyl-5-(pyrazolo[1,5-a]pyrimidin-6-yl)-1H-indol-1-yl)acetyl)-4-fluoro-N-(2-fluoro-3-(trifluoromethoxy)phenyl)pyrrolidine-2-carboxamide], with under 1000 nM; and `CC(=O)c1nn(CC(=O)N2C[C@H](F)C[C@H]2C(=O)Nc2cccc(Cl)n2)c2ccc(-c3cnc(C)nc3)cc12` [Compound 225, (2S,4R)-1-(2-(3-acetyl-5-(2-methylpyrimidin-5-yl)-1H-indazol-1-yl)acetyl)-N-(6-chloropyridin-2-yl)-4-fluoropyrrolidine-2-carboxamide], with under 1000 nM; and `CC(=O)c1nn(CC(=O)N2C[C@H](F)C[C@H]2C(=O)NCc2cccc(Cl)c2F)c2ccc(-c3cnc(C)nc3)cc12` [Compound 226, (2S,4R)-1-(2-(3-acetyl-5-(2-methylpyrimidin-5-yl)-1H-indazol-1-yl)acetyl)-N-(3-chloro-2-fluorobenzyl)-4-fluoropyrrolidine-2-carboxamide], with under 1000 nM.
Then `CC(=O)c1cn(CC(=O)N2NCCC2C(=O)Nc2cccc(-c3ccccc3Cl)c2F)c2ccc(-c3cnc(C)nc3)cc12` (stereo not shown) [Compound 227, 2-(2-(3-acetyl-5-(2-methylpyrimidin-5-yl)-1H-indol-1-yl)acetyl)-N-(2′-chloro-2-fluorobiphenyl-3-yl)pyrazolidine-3-carboxamide], with under 1000 nM; and `CC(=O)c1nn(CC(=O)N2C[C@H](F)C[C@H]2C(=O)Nc2nccc(-c3sccc3Cl)n2)c2ccc(-c3cnc(C)nc3)cc12` [Compound 228, (2S,4R)-1-(2-(3-acetyl-5-(2-methylpyrimidin-5-yl)-1H-indazol-1-yl)acetyl)-N-(4-(3-chlorothiophen-2-yl)pyrimidin-2-yl)-4-fluoropyrrolidine-2-carboxamide], with under 1000 nM; and `CC(=O)c1nn(CC(=O)N2C[C@H](F)C[C@H]2C(=O)Nc2cc(Cl)sc2C)c2ccc(-c3cnc(C)nc3)cc12` [Compound 229, (2S,4R)-1-(2-(3-acetyl-5-(2-methylpyrimidin-5-yl)-1H-indazol-1-yl)acetyl)-N-(5-chloro-2-methylthiophen-3-yl)-4-fluoropyrrolidine-2-carboxamide], with under 1000 nM.
Then `CC(=O)c1nn(CC(=O)N2CCC[C@H]2C(=O)Nc2cccc(Br)n2)c2ccc(-c3cnc(C)nc3)cc12` [Compound 230, (S)-1-(2-(3-Acetyl-5-(2-methylpyrimidin-5-yl)-1H-indazol-1-yl)acetyl)-N-(6-bromopyridin-2-yl)pyrrolidine-2-carboxamide], with under 1000 nM; and `CC(=O)c1nn(CC(=O)N2C[C@H](O)C[C@H]2C(=O)Nc2cccc(Br)n2)c2ccc(-c3cnc(C)nc3)cc12` [Compound 231, (2S,4R)-1-(2-(3-Acetyl-5-(2-methylpyrimidin-5-yl)-1H-indazol-1-yl)acetyl)-N-(6-bromopyridin-2-yl)-4-hydroxypyrrolidine-2-carboxamide], with under 1000 nM; and `CC(=O)c1nn(CC(=O)N2C[C@H](F)C[C@H]2C(=O)NC2CCN(C(=O)c3cc(Cl)c[nH]3)CC2)c2ccc(-c3cnc(C)nc3)cc12` [Compound 232, (2S,4R)-1-(2-(3-acetyl-5-(2-methylpyrimidin-5-yl)-1H-indazol-1-yl)acetyl)-N-(1-(4-chloro-1H-pyrrole-2-carbonyl)piperidin-4-yl)-4-fluoropyrrolidine-2-carboxamide], with under 1000 nM.
Turning to `CC(=O)c1nn(CC(=O)N2C[C@H](F)C[C@H]2C(=O)Nc2cccc(Br)n2)c2ccc(-c3cnc4ccnn4c3)cc12` [Compound 234, (2S,4R)-1-(2-(3-acetyl-5-(pyrazolo[1,5-a]pyrimidin-6-yl)-1H-indazol-1-yl)acetyl)-N-(6-bromopyridin-2-yl)-4-fluoropyrrolidine-2-carboxamide], the IC50 is under 1000 nM.
Then `CC(=O)c1nn(CC(=O)N2C[C@H](F)C[C@H]2C(=O)Nc2cccc(OC(F)(F)F)c2F)c2ccc(-c3cnc4ccnn4c3)cc12` [Compound 235, (2S,4R)-1-(2-(3-acetyl-5-(pyrazolo[1,5-a]pyrimidin-6-yl)-1H-indazol-1-yl)acetyl)-4-fluoro-N-(2-fluoro-3-(trifluoromethoxy)phenyl)pyrrolidine-2-carboxamide], with under 1000 nM; and `CC(=O)c1nn(CC(=O)N2C[C@H](F)C[C@H]2C(=O)NCc2cccc(Cl)c2F)c2ccc(-c3cnc4ccnn4c3)cc12` [Compound 236, (2S,4R)-1-(2-(3-acetyl-5-(pyrazolo[1,5-a]pyrimidin-6-yl)-1H-indazol-1-yl)acetyl)-N-(3-chloro-2-fluorobenzyl)-4-fluoropyrrolidine-2-carboxamide], with under 1000 nM; and `CC(=O)c1nn(CC(=O)N2C[C@H](F)C[C@H]2C(=O)Nc2cccc(-c3ccccc3Cl)c2F)c2ccc(-c3cnc4ccnn4c3)cc12` [Compound 237, (2S,4R)-1-(2-(3-acetyl-5-(pyrazolo[1,5-a]pyrimidin-6-yl)-1H-indazol-1-yl)acetyl)-N-(2′-chloro-2-fluorobiphenyl-3-yl)-4-fluoropyrrolidine-2-carboxamide], with under 1000 nM.
Consider `CC(=O)c1nn(CC(=O)N2[C@@H]3C[C@@H]3C[C@H]2C(=O)Nc2cccc(Br)n2)c2ccc(-c3cnc4ccnn4c3)cc12` [Compound 238, (1R,3S,5R)-2-(2-(3-acetyl-5-(pyrazolo[1,5-a]pyrimidin-6-yl)-1H-indazol-1-yl)acetyl)-N-(6-bromopyridin-2-yl)-2-azabicyclo[3.1.0] hexane-3-carboxamide], for which the IC50 is under 1000 nM.

The record behind these values is patent publication US10287301B2 (Achillion Pharmaceuticals, Inc., priority 2015, dated 2019).
